Measured values as given in ChEMBL document CHEMBL1140265, “Inhibitors of HCV NS5B polymerase. Part 1: Evaluation of the southern region of (2Z)-2-(benzoylamino)-3-(5-phenyl-2-furyl)acrylic acid” (Bioorg Med Chem Lett, 2005).
pEC50, pIC50: −log10 of the molar value.

Columns and labels:
[1] = molecular target: RNA-directed RNA polymerase (Hepacivirus hominis, UniProt O39930); experiment: Inhibitory concentration against Hepatitis C virus NS5B polymerase
Hepatitis C virus [2] = experiment: Cytotoxic concentration against Hepatitis C virus replication using sub-genomic replicon assay; type: functional, Hepacivirus hominis
Hepatitis C virus [3] = experiment: Effective concentration against Hepatitis C virus replication using sub-genomic replicon assay; type: functional, Hepacivirus hominis; conditions: read-out: ED50 (the source's name)
[4] = Half-life in rat after 5 mpk dosage administration; type: ADME, organism-based; conditions: in vivo, 5 mg/kg
[5] = Clearance at low levels in rat after 5 mpk dosage administration; type: ADME, organism-based; conditions: in vivo, 5 mg/kg
[6] = Bioavailability in rat (dose 5 mg/kg); type: ADME, organism-based; conditions: in vivo
[7] = Maximum concentration in plasma levels in rat after 5 mpk dosage administration; type: ADME, organism-based; set-up: dose 5 mpk; conditions: 5 mg/kg

Chain of RNA-directed RNA polymerase (O39930 whole entry): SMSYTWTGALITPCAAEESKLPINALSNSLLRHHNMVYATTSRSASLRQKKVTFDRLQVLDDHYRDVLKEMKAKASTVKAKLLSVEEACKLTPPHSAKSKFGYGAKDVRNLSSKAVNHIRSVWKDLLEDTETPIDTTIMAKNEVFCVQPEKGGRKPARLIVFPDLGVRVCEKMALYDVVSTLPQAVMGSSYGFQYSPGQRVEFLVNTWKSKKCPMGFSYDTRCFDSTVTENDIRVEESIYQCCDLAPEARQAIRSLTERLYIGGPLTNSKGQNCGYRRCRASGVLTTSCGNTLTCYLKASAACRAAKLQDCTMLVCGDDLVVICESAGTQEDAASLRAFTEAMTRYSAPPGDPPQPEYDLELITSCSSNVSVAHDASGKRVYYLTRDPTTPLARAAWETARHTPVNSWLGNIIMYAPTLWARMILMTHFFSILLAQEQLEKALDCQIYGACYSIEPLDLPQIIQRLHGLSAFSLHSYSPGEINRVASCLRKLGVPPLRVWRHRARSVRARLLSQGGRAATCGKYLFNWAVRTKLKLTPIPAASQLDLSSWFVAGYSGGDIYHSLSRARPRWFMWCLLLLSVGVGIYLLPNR

Row | Compound | pIC50 [1] | other results
1 | NS(=O)(=O)c1ccc(-c2ccc(/C=C(\NC(=O)c3ccccc3)C(=O)O)o2)cc1 | < 4.00 | 
2 | O=C(O)/C(=C/c1ccc(-c2ccc(Cl)cc2)o1)NC(=O)c1ccccc1 | 5.34 | 
3 | O=C(O)/C(=C/c1ccc(-c2ccccc2Cl)o1)NC(=O)c1ccccc1 | 5.89 | 
4 | Cc1cccc(Cl)c1Oc1ccc(/C=C(\NC(=O)c2ccccc2)C(=O)O)cc1 | 6.70 | 
5 | O=C(O)/C(=C/c1ccc(Oc2c(F)cccc2Br)cc1)NC(=O)c1ccccc1 | 7.52 | CC50 (Hepatitis C virus [2]): > 100 µM; pEC50 (Hepatitis C virus [3]): 4.30
6 | O=C(O)/C(=C/c1cncc(-c2ccccc2Cl)c1)NC(=O)c1ccccc1 | < 4.00 | 
7 | Cc1ccccc1Oc1ccc(/C=C(\NC(=O)c2ccccc2)C(=O)O)cc1 | 6.24 | 
8 | CC(C)Oc1ccccc1Oc1ccc(/C=C(\NC(=O)c2ccccc2)C(=O)O)cc1 | 4.36 | 
9 | O=C(O)/C(=C/c1ccc(Oc2c(F)cccc2Cl)cc1)NC(=O)c1ccccc1 | 7.15 | 
10 | O=C(O)/C(=C/c1ccc(Oc2ccccc2F)cc1)NC(=O)c1ccccc1 | 5.16 | 
11 | NS(=O)(=O)c1cccc(-c2ccc(/C=C(\NC(=O)c3ccccc3)C(=O)O)o2)c1 | < 4.00 | 
12 | O=C(O)/C(=C/c1ccc(-c2cccc(OC(F)(F)F)c2)o1)NC(=O)c1ccccc1 | 4.18 | 
13 | COc1ccccc1Oc1ccc(/C=C(\NC(=O)c2ccccc2)C(=O)O)cc1 | 4.82 | 
14 | O=C(O)/C(=C/c1ccc(-c2ccccc2[N+](=O)[O-])o1)NC(=O)c1ccccc1 | 5.16 | 
15 | O=C(O)/C(=C/c1ncc(-c2ccccc2Cl)s1)NC(=O)c1ccccc1 | 5.28 | 
16 | CC(C)(C)c1ccccc1Oc1ccc(/C=C(\NC(=O)c2ccccc2)C(=O)O)cc1 | < 4.00 | 
17 | O=C(O)/C(=C/c1ccc(-c2ccc(OC(F)(F)F)cc2)o1)NC(=O)c1ccccc1 | 4.66 | 
18 | O=C(O)/C(=C/c1ccc(-c2ccc(CO)cc2)o1)NC(=O)c1ccccc1 | < 4.00 | 
19 | N#Cc1ccccc1Oc1ccc(/C=C(\NC(=O)c2ccccc2)C(=O)O)cc1 | 4.33 | 
20 | O=C(O)/C(=C/c1cccc(-c2ccccc2Cl)n1)NC(=O)c1ccccc1 | 4.96 | 
21 | O=C(O)/C(=C/c1ccc(-c2cccc(F)c2)o1)NC(=O)c1ccccc1 | 5.41 | 
22 | O=C(O)/C(=C/c1ccc(Oc2ccccc2C(F)(F)F)cc1)NC(=O)c1ccccc1 | 5.89 | 
23 | O=C(O)/C(=C/c1ccc(-c2ccc([N+](=O)[O-])cc2)o1)NC(=O)c1ccccc1 | < 4.00 | 
24 | O=C(O)/C(=C/c1ccc(-c2ccccc2F)o1)NC(=O)c1ccccc1 | 5.51 | 
25 | O=C(O)/C(=C/c1ccc(-c2cccc(CO)c2)o1)NC(=O)c1ccccc1 | < 4.00 | 
26 | O=C(O)/C(=C/c1ccc(-c2ccc(F)cc2)o1)NC(=O)c1ccccc1 | 4.92 | 
27 | O=C(O)/C(=C/c1ccc(Oc2ccccc2Br)cc1)NC(=O)c1ccccc1 | 7.00 | half-life [4]: 1.5 h; clearance [5]: 0.2 L/h/kg; bioavailability [6]: 21%; CC50 (Hepatitis C virus [2]): > 100 µM; Cmax [7]: 9 µM; pEC50 (Hepatitis C virus [3]): 4.55
28 | O=C(O)/C(=C/c1ccc(-c2ccccc2CO)s1)NC(=O)c1ccccc1 | 4.70 | 
29 | O=C(O)/C(=C/c1ccc(-c2cccc(Cl)c2)o1)NC(=O)c1ccccc1 | 5.22 | 

The next lines start with results.

Row | pIC50 [1] | Compound | other results
30 | 5.40 | O=C(O)/C(=C/c1ccc(-c2ccccc2OC(F)(F)F)o1)NC(=O)c1ccccc1 | 
31 | 5.26 | O=C(O)/C(=C/c1ccc(Oc2c(Cl)cccc2[N+](=O)[O-])cc1)NC(=O)c1ccccc1 | 
32 | 5.59 | O=C(O)/C(=C/c1ccc(-c2ccccc2F)s1)NC(=O)c1ccccc1 | 
33 | 5.85 | Cc1ccccc1-c1ccc(/C=C(\NC(=O)c2ccccc2)C(=O)O)s1 | 
34 | 4.14 | O=C(O)/C(=C/c1ccc(Oc2ccccc2[N+](=O)[O-])cc1)NC(=O)c1ccccc1 | 
35 | 5.25 | O=C(O)/C(=C/c1ccc(-c2ccccc2C(F)(F)F)o1)NC(=O)c1ccccc1 | 
36 | 7.40 | O=C(O)/C(=C/c1ccc(Oc2ccccc2I)cc1)NC(=O)c1ccccc1 | CC50 (Hepatitis C virus [2]): > 100 µM; pEC50 (Hepatitis C virus [3]): 4.54
37 | 6.18 | O=C(O)/C(=C/c1ccc(-c2ccccc2Cl)s1)NC(=O)c1ccccc1 | 
38 | 4.32 | O=C(O)/C(=C/c1ccc(Oc2ccccc2-c2ccccc2)cc1)NC(=O)c1ccccc1 | 
39 | 4.57 | CSc1ccc(-c2ccc(/C=C(\NC(=O)c3ccccc3)C(=O)O)o2)cc1 | 
40 | 4.70 | COc1ccccc1-c1ccc(/C=C(\NC(=O)c2ccccc2)C(=O)O)o1 | 
41 | 5.52 | Cc1ccccc1-c1ccc(/C=C(\NC(=O)c2ccccc2)C(=O)O)o1 | 
42 | 4.89 | O=C(O)/C(=C/c1ccc(-c2ccc(C(F)(F)F)cc2)o1)NC(=O)c1ccccc1 | 
43 | 6.70 | O=C(O)/C(=C/c1ccc(Oc2ccccc2Cl)cc1)NC(=O)c1ccccc1 | half-life [4]: 1.9 h; clearance [5]: 0.31 L/h/kg; bioavailability [6]: 42%; CC50 (Hepatitis C virus [2]): > 100 µM; Cmax [7]: 22 µM; pEC50 (Hepatitis C virus [3]): 4.22
44 | 5.17 | O=C(O)/C(=C/c1ccc(-c2ccccc2)o1)NC(=O)c1ccccc1 | CC50 (Hepatitis C virus [2]): > 100 µM; pEC50 (Hepatitis C virus [3]): < 4.00
45 | 5.82 | O=C(O)/C(=C/c1ccc(-c2ccccc2)s1)NC(=O)c1ccccc1 | 
46 | 5.03 | CCc1ccccc1Oc1ccc(/C=C(\NC(=O)c2ccccc2)C(=O)O)cc1 | 
47 | 5.74 | CSc1ccccc1Oc1ccc(/C=C(\NC(=O)c2ccccc2)C(=O)O)cc1 | 
48 | 4.60 | O=C(O)/C(=C/c1ccc(-c2cccc([N+](=O)[O-])c2)o1)NC(=O)c1ccccc1 | 
49 | 4.55 | CC(C)c1ccccc1Oc1ccc(/C=C(\NC(=O)c2ccccc2)C(=O)O)cc1 | 
50 | 5.06 | O=C(O)/C(=C/c1ccc(-c2cccc(C(F)(F)F)c2)o1)NC(=O)c1ccccc1 | 
51 | 4.77 | O=C(O)/C(=C/c1ccc(Oc2ccccc2)cc1)NC(=O)c1ccccc1 | 
52 | 6.51 | Nc1cccc(Cl)c1Oc1ccc(/C=C(\NC(=O)c2ccccc2)C(=O)O)cc1 | 
53 | 5.89 | O=C(O)/C(=C/c1cccc(-c2ccccc2Cl)c1)NC(=O)c1ccccc1 | 
